Measurements reported in a melting point compilation (Tetko et al.; mined from patent text by program, amines drawn as free bases though some values may be those of a salt).

Row | melting point [°C] | SMILES
1 | 171 to 172 | CCOc1ccc(CC2SC(=N)NC2=O)cc1OCC (stereo not given)
2 | 262 to 265 | Cn1cc(S(=O)(=O)Cl)c(=O)c2ccc(C(F)(F)F)cc21
3 | 192 to 195 | CCOC(=O)CNC(=O)c1nc2ccc(Cl)nn2c1C
4 | 209 to 215 | CC(C)CC(=O)Nc1c(C(=O)C2CCCCC2)[nH]c2cc(Cl)ccc12
5 | 75 to 81 | CC1CN(c2nnc(N3CCOC(C)C3)c3cc(-c4ccccc4)ncc23)CCO1 (stereo not given)
6 | 100 to 101 | CCN1CCCC1CNC(=O)c1nc(Cl)c(OC)nc1OC (stereo not given)
7 | 96 to 98 | CCCCCCCCCCCCCCCCCCNC(=O)OCC(CNS(=O)(=O)CCCI)NC(=O)OCCCC (stereo not given)
8 | 174 to 176 | COc1ccc(-c2ccc(C(=O)Nc3ccc4cc(CN5CCCC5)cnc4c3C)cc2F)cc1
9 | 117 to 118 | CCC(=O)c1cc(C)nc2c1c(C)nn2-c1c(C)cc(C)cc1C
10 | 199 to 201 | CN(C)c1nc2cc(NC(=O)c3c(C(=O)N4CCCC4)cnn3C)ccn2n1
11 | 99 to 101 | Cn1nc2nnsc2c1Br
12 | 202 to 203 | COc1cc(OC)c(-c2cccs2)cc1/C=C/C(=O)c1ccc(S(=O)(=O)Nc2cc(C)on2)cc1
13 | 186 to 191 | CC(=O)Nc1ccccc1C(=O)NC(=O)Nc1ccc(Oc2ncc(Br)cn2)c(C)c1
14 | 85 to 86.5 | O=C(O)c1ccccc1OCC(F)(F)F
15 | 114 to 116 | c1csc(C2NCCc3ccccc32)c1 (stereo not given)
16 | 129 to 130 | COc1ccc2c(c1)CCC1C3=CC(C)=C(OC(C)=O)C3(C)CCC21 (stereo not given)
17 | 192 to 195 | COC(=O)CCC(=O)c1ccc(NC(=O)c2ccc(C)cc2)cc1
18 | 106 to 109 | O=C1CCc2ccc(OCCCCBr)cc2N1
19 | 203 | O=C(O)c1cc(Cl)c(Cl)c(S(=O)(=O)Cl)c1
20 | 69 to 70 | O=C(Sc1ccccn1)c1ccc(Br)cc1
21 | 172 to 176 | COc1cc(OC)nc(NC(=O)NS(=O)(=O)c2ccccc2CS(=O)(=O)N(C)C)n1
22 | 188 | Cc1cc2c(N)c(C(=O)c3cc(F)ccc3F)sc2nc1C
23 | 117 to 119 | CCCOCCOc1ccc(-c2ccc3c(c2)C=C(C(=O)OC)CCN3c2ccccc2)cc1
24 | 258 to 259 | CCn1c(=O)[nH]c2c3cccnc3ccc21

Row | melting point [°C] | SMILES
25 | 165 to 166 | Cc1cc(C(=O)c2ccccc2)c(C)n1C(C)C(=O)Nc1ccccc1 (stereo not given)
26 | 130 to 132 | CCCCCCCCCCOc1ccc(C(=O)O)cc1C(C)(C)C
27 | 169 to 170 | CCCc1c(OCCCCCC(=O)c2c(C)c(C)c(O)c(O)c2C)ccc(C(=O)O)c1O
28 | 145 to 146 | COc1ccc2c(CN3CCC[C@H]3C(=O)O)cc3cc4c(cc3c2c1)OCO4
29 | 47.5 to 48.5 | COC(=O)c1cc(Cl)c(C)c(Cl)c1
30 | 180 to 181 | CC(C)(C)C(NC(=O)c1ccc(Br)cc1)NC(=NC#N)Nc1cccnc1 (stereo not given)
31 | 195 to 197 | CCS(=O)(=O)CCC(=O)NNC(=O)N1Cc2cccc(Cl)c2Oc2ccccc21
32 | 238 to 239 | Cc1cnc2c(NC(=O)c3c(Cl)cccc3Cl)ccc(Br)c2c1
33 | 122 to 123 | O=C1C=C(c2ccc(OC(F)(F)F)cc2)CO1
34 | 112 to 114 | C=CCOc1ccc(C2C(=O)Oc3c2cc(C(C)(C)C)cc3C(C)(C)C)cc1 (stereo not given)
35 | 124 to 125 | c1ccc2oc(SSCCSSc3nc4ccccc4o3)nc2c1
36 | 125 to 127 | COc1cc(/C=C/S(=O)(=O)CS(=O)(=O)/C=C/c2ccc(O)c(OC)c2)ccc1O
37 | 145 to 155 | O=c1c(C2=CS(=O)(=O)c3cc(NS(=O)(=O)C4CC4)ccc3N2)c(O)c2cc(F)ccc2n1CCC1CC1
38 | 180 to 182 | Nc1ccc(SCc2csc(NC=O)n2)cc1
39 | 57 to 58 | Nc1cc(C(F)(F)F)cc2c(Cl)ccnc12
40 | 234 to 235 | O=C(O)c1ccc(C2=NCCS2)nc1
41 | 170 to 174 | Cc1cc2cc(CN3CCCCCC3)cnc2cc1NC(=O)c1ccc(-c2ccc(F)cc2)cc1
42 | 82 to 84 | CCCCCCCCc1ccc(NC2=NCCS2)cc1
43 | 141 to 143 | COc1ccccc1N1CCN(c2nc3cccccc-3c2C#N)CC1
44 | 150 to 151 | COc1cc(-c2ccccc2C(F)(F)F)c(Cl)cc1C(=O)N1Cc2ccc(C(=O)N(C)CC(O)C(O)C(O)C(O)CO)n2Cc2ccccc21 (stereo not given)
45 | 199 to 201 | CN1CCOC(=NO)C1=O
46 | 50 to 52 | CCCOc1ccc(Br)c(C(C)=O)c1
47 | > 240 | O=C(O)c1cc(Cn2cc(C3c4ccccc4C=Cc4ccccc43)c(=S)[nH]c2=O)ccc1O
48 | 183 to 184 | CCOC(=O)c1cnc2c3ccccc3ccn2c1=O

Row | melting point [°C] | SMILES
49 | 172 to 173 | CC(=O)NC1=NN(c2ccc(Cl)cc2)CC1C (stereo not given)
50 | 124 to 136 | COC(=O)C1Oc2ccccc2C(C)c2cc(Cl)ccc2O1 (stereo not given)
51 | 112 to 114 | O=C1c2ccccc2C(=O)N1[C@@H]1C=CCC[C@@H]1O (racemic)
52 | 239 to 240 | CN(C)c1nc(NS(=O)(=O)c2ccc(N)cc2)cc(N2CCC2)n1
53 | 190 to 194 | CCS(=O)(=O)c1ccc(-n2cncc2-c2ccc([N+](=O)[O-])cc2)cc1
54 | 228 to 230 | CCOC(=O)c1ccc(-c2cn3cc(C)ccc3n2)cc1
55 | 78 to 79 | CCCCNC(=O)Oc1ccc(C(O)(CC)c2ccc(Cl)cc2)cc1 (stereo not given)
56 | 129 to 130 | CCC(C(C)=CC(CNC(=O)C1=NNC(=O)CC1)=NO)[N+](=O)[O-] (stereo not given)
57 | > 300 | O=C(O)c1ccc(-c2ccc(OCc3ccccc3)cc2)cc1
58 | 148 to 150 | O=C1N(Cc2ccc(Br)cc2)c2ccccc2C12COc1cc3c(cc12)OCO3 (stereo not given)
59 | 140 to 149 | CS(=O)(=O)c1ccc(-c2cnn(-c3cccc(Cl)c3)c(=O)c2SCc2ccco2)cc1
60 | 153 to 155 | O=C(O)c1ccc(C(c2ccccc2)(C(F)(F)F)C(F)(F)F)cc1
61 | > 320 | CN(C)CCC(=O)Nc1ccc2[nH]c3ccc(NC(=O)CCN(C)C)cc3c(=O)c2c1
62 | 128 to 129 | Fc1cccc(CSc2nnc(-c3ccc4c(c3)CCO4)o2)c1
63 | 249 to 251 | Cc1cc(C(F)(F)F)nn1CC(=O)N1CCC(c2csc(NC(=O)Cc3c(F)cccc3Cl)n2)CC1
64 | 216 to 217 | O=c1[nH]c(=O)n(-c2ccccc2)n1-c1ccccc1
65 | 128 to 130 | COc1ccc(-c2nn(CC3CC3)c(=O)cc2-c2ccncc2)cc1
66 | 82 to 83 | O=C(SC(SC(=O)c1ccccc1)C(=O)O)c1ccccc1
67 | 152 to 160 | COc1cc(OC)cc(SSc2cc(OC)cc(OC)c2)c1
68 | 145 | CS(=O)(=O)c1ccc(Cl)cc1[N+](=O)[O-]
69 | 179 to 181 | N#CC1C(=O)NC(=O)C(C#N)C12CCN(Cc1ccccc1)CC2 (stereo not given)
70 | 199 to 201 | NC(=O)Nc1ccc(OCCn2ccnc2)cc1
71 | 142 | COc1ccccc1CC(=O)N1C[C@H]2C(c3ccccc3OC)=CCC(c3ccccc3)(c3ccccc3)[C@H]2C1
72 | 128 | CCOC(=O)N1CC[C@@H](N2C(=O)c3ccccc3C2=O)[C@H](O)C1 (relative stereo)

Row | melting point [°C] | SMILES
73 | 153 to 155 | CSc1ccc(-c2cnn(C(C)(C)C)c(=O)c2OCCC(C)C)cc1
74 | 106 to 109 | CC(=O)c1ccc(-c2ccccc2[N+](=O)[O-])cc1
75 | 90 to 94 | COCOc1cc2c(cc1-c1cc(-c3ccc(C(=O)O)cc3)ccc1-c1ccccc1)C(C)(C)CCC2(C)C
76 | > 300 | O=c1[nH]c2ccccc2cc1-c1csc(NS(=O)(=O)c2ccc(Cl)cc2)n1
77 | 278 | O=C(O)c1cnc(-c2nnn[nH]2)cc1C1CCCCC1
78 | 128 to 129 | O=C(O)C(Cc1cccnc1)C(=O)O
79 | 113 to 115 | N#Cc1ccc2cc(S)ccc2c1
80 | 215 to 220 | Cc1ccc2c(c1)C=Cc1cc(C(C)C)ccc1C2c1cn(-c2ccnc(NCC(=O)Nc3nc(CC(=O)O)cs3)n2)c(=O)[nH]c1=O (stereo not given)
81 | 236 to 238 | O=C(Nc1ccc(Oc2ccc(C(=O)N3CCC(C(=O)N4CCN(Cc5ccc6c(c5)OCO6)CC4)CC3)cc2)nc1)c1ccc(Cl)c(Cl)c1
82 | 121 to 123 | O=C1C(c2cc3c(cc2O)OCC3)c2ccc(F)cc2N1C(c1ccccc1)c1ccccc1 (stereo not given)
83 | 155 | Fc1ccc(-c2nc3ccccn3c2-c2ccnc(-c3ccc(CN4CCCC4)cc3)c2)cc1F
84 | 155 to 165 | CCCC(=O)NS(=O)(=O)c1ccc(C(=O)C=Cc2cc(-c3cc4ccccc4[nH]3)c(OC)cc2OC)cc1
85 | 98 to 100 | COc1ccc2c(c1)CCC1C2CCC2(C)C(=NN(C)C)CCC12 (stereo not given)
86 | 178 to 180 | C1=CC2=NCCN2C=C1
87 | 186 to 187 | Cc1cc(C)n(-c2nc(Nc3ccc(Cl)cc3)cc(N3CCOCC3)n2)n1
88 | 97 to 99 | O=C1NCC(c2ccccc2)N1CCCS (stereo not given)
89 | 210 to 217 | COc1cc2c(cc1OC)-c1c(O)c(OC)cc3c1C(C2)CN(C(=O)C(F)(F)F)C3 (stereo not given)
90 | 204 to 207 | Cc1c(-c2ccccc2)nc2cc(Cl)ccc2c1C(=O)N[C@@H](C)C1CCCCC1
91 | 210 | OCc1cc2c(N=C3SC[C@@H]4Cc5ccccc5CN34)cccc2cn1
92 | 123 to 125 | Cc1ccc(-c2c(C(=O)NCc3cc(C(F)(F)F)cc(C(F)(F)F)c3)n(CCO)c(=O)c3ncccc23)cc1
93 | 169 | C=Nn1nc(NC)n(OCC)c1=O
94 | 144 to 145 | ClC1=Nc2ccccc2Oc2c1csc2Cl
95 | 89 to 90 | CCCOc1ccc(COCC)cc1-c1nc2c(CCC)nn(C)c2c(=O)[nH]1
96 | 249 to 253 | N#CC(C(=O)Nc1ccccc1)C(=O)c1nn(-c2ccccc2)c2c1COc1c(CN3CCOCC3)cc(F)cc1-2 (stereo not given)

Row | SMILES | melting point [°C]
97 | S=C1CN=C(c2ccccc2)c2ccsc2N1 | 208 to 210
98 | COc1cc(C(=O)Nc2c(Cl)cc3c(Br)n[nH]c3c2C(=O)NC2(C3CC3)CC2)n(-c2ncccc2Cl)n1 | 190 to 194
99 | Nc1nnnc(-c2c[nH]nn2)c1-c1cnnnn1 | 215
100 | Fc1ccccc1C1=NCc2c(N3CCCC3)ncn2-c2ccc(Cl)cc21 | 114 to 118
